Key:
[1] = biological target: T1, Proliferating cell nuclear antigen (Homo sapiens, UniProt P12004); test: Binding affinity to N-terminal recombinant 6His-tagged PCNA (unknown origin) extracted from Escherichia coli BL21 (DE3) by fluorescence polarization assay
SK-N-AS [2] = test: Antiproliferative activity against human SK-N-AS cells assessed as reduction in cell viability incubated for 72 hrs by cell-titer Glo assay; format: functional, cell-based
SK-N-AS [3] = test: Anticancer activity against human SK-N-AS cells; format: functional, cell-based
SK-N-DZ = test: Antiproliferative activity against human SK-N-DZ cells; format: functional, cell-based
[4] = Antiproliferative activity against human SK-N-BE(2)-C cells; format: functional, cell-based
SH-SY5Y = test: Antiproliferative activity against human SH-SY5Y cells assessed as reduction in cell viability; format: functional, cell-based
A549 = test: Antiproliferative activity against human A549 cells assessed as reduction in cell viability incubated for 72 hrs by MTT assay; format: functional, cell-based; settings: A549, 72 h
A673 = test: Antiproliferative activity against human A673 cells assessed as reduction in cell viability incubated for 72 hrs by MTT assay; format: functional, cell-based; settings: A673, 72 h
HeLa [5] = test: Antiproliferative activity against human HeLa cells assessed as reduction in cell viability incubated for 72 hrs by MTT assay; format: functional, cell-based
[6] = biological target: T1, Proliferating cell nuclear antigen; test: Inhibition of N-terminal 6His-tagged recombinant PCNA (unknown origin) extracted from Escherichia coli BL21 (DE3) by fluorescence based analysis
MCF7 = test: Antiproliferative activity against human MCF7 cells assessed as reduction in cell growth measured for 48 hrs by MTT assay; format: functional, cell-based; settings: MCF7, 48 h
Jurkat = test: Antiproliferative activity against human Jurkat cells assessed as reduction in cell growth measured for 48 hrs by MTT assay; format: functional, cell-based
HCT-116 = test: Antiproliferative activity against human HCT-116 cells assessed as reduction in cell growth measured for 48 hrs by MTT assay; format: functional, cell-based; settings: HCT-116, 48 h
HepG2 = test: Antiproliferative activity against human HepG2 cells assessed as reduction in cell growth measured for 48 hrs by MTT assay; format: functional, cell-based; settings: HepG2, 48 h
HeLa [7] = test: Antiproliferative activity against human HeLa cells assessed as reduction in cell growth measured for 48 hrs by MTT assay; format: functional, cell-based

T1 sequence (P12004 whole entry): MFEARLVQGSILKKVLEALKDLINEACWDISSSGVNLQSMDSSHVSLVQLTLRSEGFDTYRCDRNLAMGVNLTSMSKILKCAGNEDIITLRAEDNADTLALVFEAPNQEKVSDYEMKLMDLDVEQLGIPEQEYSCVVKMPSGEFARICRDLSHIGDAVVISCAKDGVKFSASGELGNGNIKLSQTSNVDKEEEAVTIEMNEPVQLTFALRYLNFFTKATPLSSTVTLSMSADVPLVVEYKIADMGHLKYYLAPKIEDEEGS

Row | Structure (SMILES) | Ki [1] | IC50 (SK-N-AS [2]) | also measured
1 | NC(=O)CN(Cc1ccc(O)cc1)C(=O)CN(CCO)C(=O)CN[C@H](CO)Cc1cc(I)c(Oc2ccc(O)cc2)c(I)c1 | 40 nM | – | –
2 | O=C(CCNC(=O)c1cccc2ccccc12)Nc1ccccc1Oc1ccccc1 | – | – | IC50 (SK-N-AS [3]): > 10000 nM
3 | NC(=O)CN(Cc1ccc2c(c1)OCO2)C(=O)CN(CCO)C(=O)CN[C@H](CO)Cc1cc(I)c(Oc2ccc(O)cc2)c(I)c1 | 170 nM | – | –
4 | COc1ccc(Oc2c(I)cc(CCC(=O)NS(C)(=O)=O)cc2I)cc1 | > 4810 nM | – | –
5 | CC(C)[C@@H](NC(=O)c1cccc2ccccc12)C(=O)Nc1ccccc1Oc1ccccc1 | – | – | IC50 (SK-N-AS [3]): > 10000 nM
6 | O=C1CN(C(=O)CCc2cc(I)c(Oc3ccc(O)cc3)c(I)c2)CCN1 | > 4810 nM | – | –
7 | O=C(CCc1cc(I)c(Oc2ccc(O)cc2)c(I)c1)N1CCCCC1 | 231 nM | – | –
8 | NCCCC[C@H](NC(=O)c1cccc2ccccc12)C(=O)Nc1ccccc1Oc1ccccc1 | – | – | IC50 (SK-N-AS [3]): > 10000 nM
9 | O=C(O)CC[C@H](NC(=O)c1cccc2ccccc12)C(=O)Nc1ccccc1Oc1ccccc1 | – | – | IC50 (SK-N-AS [3]): > 10000 nM
10 | CCNC(=O)Cc1cc(I)c(Oc2ccc(O)cc2)c(I)c1 | 630 nM | – | –
11 | N[C@H](CNC(=O)CO)Cc1cc(I)c(Oc2ccc(O)cc2)c(I)c1 | 130 nM | – | –
12 | C[C@H](NC(=O)c1cccc2ccccc12)C(=O)Nc1ccccc1Oc1ccccc1 | – | – | IC50 (SH-SY5Y): 4000 nM
13 | O=C(Nc1ccccc1Oc1ccccc1)c1cccc2ccccc12 | – | – | IC50 (SK-N-AS [3]): > 10000 nM
14 | O=C(Cc1cc(I)c(Oc2ccc(O)cc2)c(I)c1)N1CCOCC1 | 600 nM | – | –
15 | CS(=O)(=O)NC(=O)CCc1cc(I)c(Oc2ccc(O)cc2)c(I)c1 | 1920 nM | – | –
16 | O=C1NC[C@H](Cc2cc(I)c(Oc3ccc(O)cc3)c(I)c2)N1 | 540 nM | – | –
17 | O=C1CN(C(=O)Cc2cc(I)c(Oc3ccc(O)cc3)c(I)c2)CCN1 | 870 nM | – | –
18 | CNC(=O)CCc1cc(I)c(Oc2ccc(OC)cc2)c(I)c1 | 1630 nM | – | –
19 | N[C@H](CO)Cc1cc(I)c(Oc2ccc(O)c(I)c2)c(I)c1 | 60 nM | – | –
20 | Cc1noc(C)c1S(=O)(=O)N[C@H](CO)Cc1cc(I)c(Oc2ccc(O)cc2)c(I)c1 | 150 nM | – | –
21 | COc1ccc(S(=O)(=O)N[C@H](CO)Cc2cc(I)c(Oc3ccc(O)cc3)c(I)c2)cc1 | 930 nM | – | –

Row | Structure (SMILES) | Ki [1] | IC50 (SK-N-AS [2]) | also measured
22 | COc1cccc(Oc2ccccc2NC(=O)CNC(=O)c2ccc(-c3ccccc3)cc2)c1 | – | > 10000 nM | –
23 | O=S(=O)(N[C@H](CO)Cc1cc(I)c(Oc2ccc(O)cc2)c(I)c1)c1ccc(O)cc1 | 3080 nM | – | –
24 | COc1cccc(Oc2ccccc2NC(=O)CNC(=O)c2c(C)cc(C)cc2C)c1 | – | – | IC50 (A549): 4700 nM; IC50 (A673): 5500 nM; IC50 (HeLa [5]): 6500 nM
25 | NC[C@@H](N)Cc1cc(I)c(Oc2ccc(O)cc2)c(I)c1 | 240 nM | – | –
26 | O=C(O)CC[C@@H](NC(=O)c1cccc2ccccc12)C(=O)Nc1ccccc1Oc1ccccc1 | – | – | IC50 (SK-N-AS [3]): > 10000 nM
27 | N[C@H](CNC(=O)NCc1ccccc1)Cc1cc(I)c(Oc2ccc(O)cc2)c(I)c1 | 10 nM | – | –
28 | Cc1cc(Oc2c(I)cc(C[C@H](N)CO)cc2I)ccc1O | 173 nM | – | –
29 | NCc1ccc(CN(CC(N)=O)C(=O)CN(CCO)C(=O)CN[C@H](CO)Cc2cc(I)c(Oc3ccc(O)cc3)c(I)c2)cc1 | 114 nM | – | IC50 [6]: 1180 nM
30 | N[C@H](CNC(=O)NC(=O)CCN1CCOCC1)Cc1cc(I)c(Oc2ccc(O)cc2)c(I)c1 | 110 nM | – | IC50 [6]: 1200 nM
31 | CNC(=O)Cc1cc(I)c(Oc2ccc(O)cc2)c(I)c1 | 780 nM | – | –
32 | COc1ccc(Oc2c(I)cc(CCC(=O)N3CCCCC3)cc2I)cc1 | 910 nM | – | –
33 | COc1cc(C(=O)N2CCC(N3CCN(C)CC3)CC2)ccc1Nc1ncc2c(n1)N(C)c1ccccc1C(=O)N2C | – | – | IC50 (MCF7): 42800 nM; IC50 (Jurkat): 5900 nM; IC50 (HCT-116): 9250 nM; IC50 (HepG2): 89100 nM; IC50 (HeLa [7]): 13500 nM
34 | COc1cccc(Oc2ccccc2NC(=O)[C@H](C)NC(=O)c2cccc3ccccc23)c1 | – | – | IC50 (SK-N-AS [3]): > 10000 nM
35 | NC(=O)CN(Cc1ccc(CO)cc1)C(=O)CNC(=O)CN[C@H](CO)Cc1cc(I)c(Oc2ccc(O)cc2)c(I)c1 | – | – | IC50 [6]: 5560 nM
36 | CN(C)C(=O)Cc1cc(I)c(Oc2ccc(O)cc2)c(I)c1 | 720 nM | – | –
37 | NCCCC[C@@H](NC(=O)c1cccc2ccccc12)C(=O)Nc1ccccc1Oc1ccccc1 | – | – | IC50 (SK-N-AS [3]): > 10000 nM
38 | CCCCCCNC(=O)NC[C@@H](N)Cc1cc(I)c(Oc2ccc(O)cc2)c(I)c1 | 120 nM | – | –
39 | CS(=O)(=O)NC(=O)Cc1cc(I)c(Oc2ccc(O)cc2)c(I)c1 | 870 nM | – | –
40 | CC(C)[C@H](NC(=O)c1cccc2ccccc12)C(=O)Nc1ccccc1Oc1ccccc1 | – | – | IC50 (SK-N-AS [3]): > 10000 nM
41 | O=S(=O)(N[C@H](CO)Cc1cc(I)c(Oc2ccc(O)cc2)c(I)c1)c1ccccc1 | 570 nM | – | –

More lines, main results first:

Row | Ki [1] | IC50 (SK-N-AS [2]) | Structure (SMILES) | also measured
42 | – | 35000 nM | O=C(CNC(=O)c1nccc2ccccc12)Nc1ccccc1Oc1ccccc1 | –
43 | – | > 50000 nM | O=C(CNC(=O)c1cccc2ccccc12)Nc1ccccc1Oc1ccncc1 | –
44 | – | 100 nM | O=C(CNC(=O)c1cccc2ccccc12)Nc1ccccc1Oc1ccccc1 | IC50 (SK-N-DZ): 237 nM; IC50 [4]: 325 nM
45 | – | 91 nM | COc1ccc(Oc2ccccc2NC(=O)CNC(=O)c2cccc3ccccc23)cc1 | IC50 (SK-N-DZ): 271 nM; IC50 [4]: 234 nM
46 | – | 34000 nM | O=C(CNC(=O)c1nccc2ccccc12)Nc1cccc(Oc2ccncc2)c1 | –
47 | – | 156 nM | O=C(CNC(=O)c1cccc2ccccc12)Nc1ccccc1Oc1ccc(O)cc1 | IC50 (SK-N-DZ): 467 nM; IC50 [4]: 490 nM
48 | – | > 30000 nM | O=C(CNC(=O)c1cncc2ccccc12)Nc1ccccc1Oc1ccncc1 | –
49 | – | > 10000 nM | COc1cccc(Oc2ccccc2NC(=O)CNC(=O)Cc2cccc3ccccc23)c1 | –
50 | – | > 30000 nM | O=C(CNC(=O)c1cncc2ccccc12)Nc1cccc(Oc2ccncc2)c1 | –
51 | – | 1100 nM | O=C(CNC(=O)c1cccc2ccccc12)Nc1ccccc1Cc1ccccc1 | –
52 | – | > 30000 nM | O=C(CNC(=O)c1cncc2ccccc12)Nc1ccccc1Oc1ccccc1 | –
53 | – | 42000 nM | O=C(CNC(=O)c1nccc2ccccc12)Nc1ccccc1Oc1ccncc1 | –
54 | – | 125 nM | COc1cccc(Oc2ccccc2NC(=O)CNC(=O)c2cccc3ccccc23)c1 | IC50 (SK-N-DZ): 288 nM; IC50 [4]: 236 nM
55 | – | > 30000 nM | O=C(CNC(=O)c1nccc2ccccc12)Nc1ccc(Oc2ccncc2)cc1 | –
56 | – | 185 nM | O=C(CNC(=O)c1cccc2ccccc12)Nc1ccc(Cl)cc1Oc1ccccc1 | IC50 (SK-N-DZ): 447 nM; IC50 [4]: 500 nM
57 | – | > 10000 nM | COc1cccc(Oc2ccccc2NC(=O)CNC(=O)CCc2cccc3ccccc23)c1 | –
58 | – | > 30000 nM | O=C(CNC(=O)c1cncc2ccccc12)Nc1ccc(Oc2ccncc2)cc1 | –
59 | – | 1100 nM | O=C(CNC(=O)c1cccc2ccccc12)Nc1ccc(Oc2ccncc2)cc1 | –
60 | – | 192 nM | O=C(CNC(=O)c1cccc2ccccc12)Nc1ccccc1Oc1cccc(O)c1 | IC50 (SK-N-DZ): 539 nM; IC50 [4]: 485 nM
61 | – | > 10000 nM | O=C(CNC(=O)c1cccc2ccccc12)Nc1c(Cl)cccc1Oc1ccccc1 | IC50 (SK-N-DZ): > 10000 nM; IC50 [4]: > 10000 nM
62 | – | 21600 nM | O=C(CNC(=O)c1cccc2ccccc12)Nc1cccc(Oc2ccncc2)c1 | –
